Test results reported in patent US11584744B2 (UNIVERSITY OF WASHINGTON, priority 2017, dated 2023).
≈ marks a conversion by molar mass, not a printed value. Like-named read-outs stand apart in the source and are kept apart here. Marks after values point to notes of the source that are not given here.

Columns and labels:
[1] = system: E. coli (ATCC 25922); assay: MIC susceptibility testing; type: cell-based; conditions: Escherichia coli, ATCC25922
How it was run: (§1)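 CLSI broth microdilution in triplicate, 5×10^5 CFU/mL final, ≤0.5% DMSO; MHB for S. aureus, CA-MHB for E. coli and E. faecium, CA-MHB plus 3% laked horse blood for S. pyogenes (5% CO2).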

[2] = system: P. aeruginosa (ATCC 27853); assay: MIC susceptibility testing; type: cell-based; conditions: Pseudomonas aeruginosa, ATCC27853
[3] = system: S. aureus MRSA (ATCC 43300); assay: MIC susceptibility testing; type: cell-based; conditions: Staphylococcus aureus; read-out: S. aureus MRSA (ATCC 43300) MIC
How it was run: as §1

[4] = system: S. aureus MSSA (ATCC 19636); assay: MIC susceptibility testing; type: cell-based; conditions: Staphylococcus aureus; read-out: S. aureus MSSA (ATCC 19636) MIC
How it was run: as §1

[5] = system: S. aureus VISA (ATCC 700699); assay: MIC susceptibility testing; type: cell-based; conditions: Staphylococcus aureus; read-out: S. aureus VISA (ATCC 700699) MIC
How it was run: as §1

[6] = system: S. pneumoniae (ATCC 49619); assay: MIC susceptibility testing; type: cell-based; conditions: Streptococcus pneumoniae, ATCC49619, 18 h; medium with 3% laked horse blood; read-out: S. pneumoniae (ATCC 49619) MIC
[7] = system: E. coli MB4827 (wild-type); assay: MIC against permeability strains of E. coli; type: cell-based; conditions: Escherichia coli, read-out: MIC MB4827 (wild-type)
Description: Bacterial strains. Strains with ATCC designations were either obtained directly from the American Type Culture Collection (Manassas, Va.) or were kindly provided by the University of Washington Clinical Microbiology laboratory. Escherichia coli permeability mutants (properties shown in Table 1) were provided as a gift from Dr. Katherine Young at Merck (Rahway, N.J.).
Susceptibility testing: Minimum inhibitory concentration (MIC) determinations were performed in triplicate in 96-well round bottom microtiter plates (Corning, Corning N.Y.) as described by the Clinical and Laboratory Standards Institute (CLSI). Serial two-fold dilutions of compounds were added to plates in 50 μL volumes. An additional 50 μL of media containing bacterial cells (1×10^6 CFUs/mL) was then added to each well. Maximum DMSO concentrations were 0.5%. Plates were incubated at 37° C. for at least 18 h before reading the susceptibility result by optical absorbance (OD600) using a BioTek ELx800. The lowest concentration causing ≥90% growth inhibition compared to the untreated control was recorded as the MIC (and also corresponded to the visual MIC). MICs were measured at least twice and the higher value (if different) was recorded herein.

[8] = system: S. aureus (ATCC 29213); type: cell-based, Staphylococcus aureus; conditions: 8× the MIC; for Resistance frequency (Expt. 1) / Resistance frequency (Expt. 2): 72 h; for Resistance frequency (average or greater #): two independent experiments
Description: Resistance frequency rates determination: The spontaneous resistance frequency rates to test compounds was determined according to published methods. Agar selection plates were made by adding compound from DMSO stocks into molten Mueller Hinton agar in a 55° C. water bath. […] The final DMSO concentration was <0.1% per plate. Plates were dried in a sterile hood for 30 minutes prior to overnight storage at 4° C., and pre-warmed in the 37° C. incubator for 1 hour prior to assay.
A fresh overnight culture was diluted 1:50 in MHB and grown at 37° C. with shaking (150 rpm) until reaching an OD600 of 0.4 correlating to ˜2×10^9 CFUs/mL. Approximately 3 mL for a total of 6*10^9 CFUs were distributed onto 4 plates for each compound. Plates were incubated at 37° C. for 72 h prior to counting of colonies. The starting inoculum was also serially diluted and plated to quantify initial bacterial load. The resistance frequency was determined as the number of compound-resistant colonies divided by the total colonies plated.
Resistance frequency rates: The propensity for S. aureus to develop resistance to MetRS inhibitors was also studied (Table 6).

[9] = Protein binding to human plasma; type: in vitro ADME
[10] = mice infected with T. brucei, 50 mg/kg PO twice-per-day for 10 days; previous publication; cited from earlier work
[11] = system: C. parvum; assay: C. parvum growth inhibition; type: cell-based, Cryptosporidium parvum; conditions: read-out: (J) C. parvum EC50
[12] = system: G. lamblia (ATCC GL50803); assay: G. lamblia growth inhibition; type: cell-based; conditions: Giardia duodenalis, read-out: (K) G. lamblia (ATCC GL50803) EC50
[13] = system: Cryptosporidium; assay: C. parvum infection model, NOD SCID Gamma mice, oocysts in stool by PCR; type: in vivo, Cryptosporidium parvum; conditions: treated 5 days
Description: (§2) Several compounds of the disclosure were also evaluated in vivo in C. parvum infection model and in acute T. cruzi infection model. Immunosuppressed mice (NOD SCID Gamma) with Cryptosporidium infection were treated for 5 days with test compounds. Cryptosporidium oocysts were quantified in stool by PCR. […] In FIG. 4, gamma-IFN knockout mice were used and, similarly, treated for 5 days with the test compound 2093. […] With respect to the T. cruzi, an efficacy model was employed in which the infection was monitored using bioluminescent T. cruz. With vehicle treatment, all mice died by day 14 post-infection.

[14] = system: T. cruzi; assay: Acute T. cruzi infection model (bioluminescent T. cruzi); type: in vivo, Trypanosoma cruzi; conditions: 50 mg/kg orally twice a day for five days
Description: FIG. 5 illustrates efficacy of a MetRS inhibitor in acute T. cruzi infection model. (A) Study protocol. Compounds were dosed orally with 50 mg/kg twice a day for five days, and the images were taken of day 6, 13, and 24. (B) Images and (C) graphs of the […] results.
as §2

[15] = system: T. brucei; assay: T. brucei growth inhibition; type: cell-based, Trypanosoma brucei; conditions: read-out: (D) T. brucei EC50
[16] = Data from Drugbank; cited from earlier work

For `Fc1ccc2nc(NCCCN[C@@H]3CCNc4c(Cl)cc(Cl)cc43)[nH]c2n1` [Compound 1717, (4R)-6,8-dichloro—N-[3-({5-fluoro-3H-imidazo[4,5-b]pyridin-2-yl}amino)propyl]-1,2,3,4-tetrahydroquinolin-4-amine, reference compound], the MIC [1] was > 10 µg/mL, the MIC [2] was > 10 µg/mL and the MIC [3] was 0.156 µg/mL (≈ 0.381 µM). For the same compound, the MIC [4] was 0.078 µg/mL (≈ 0.191 µM), the MIC [5] was 0.156 µg/mL (≈ 0.381 µM) and the MIC [6] was > 20 µg/mL. For the same compound, the MIC [7] was > 20 µg/mL, the “Resistance frequency (Expt. 1)” value [8] was 2.89 × 10^−9 and the “Resistance frequency (Expt. 2)” value [8] was 5.43 × 10^−9. The “% binding to human plasma” value [9] was 95.4% and the “effects on weight, grooming, or body condition” value [10] was “no deleterious effects on weight, grooming, or body condition”.

With `CCn1c(Cc2ccc(OC)cc2Cl)cn(Cc2nc3nc(Cl)ccc3[nH]2)c1=O` [Compound 2093, 1-({5-chloro-1H-imidazo[4,5-b]pyridin-2-yl}methyl)-4-[(2-chloro-4-methoxyphenyl)methyl]-3-ethyl-2,3-dihydro-1H-imidazol-2-one] the MIC [3] was 0.313 µg/mL (≈ 0.724 µM), the MIC [4] was 0.313 µg/mL (≈ 0.724 µM) and the MIC [5] was 0.313 µg/mL (≈ 0.724 µM). For the same compound, the MIC [6] was > 20 µg/mL, the MIC [7] was > 20 µg/mL and the “Resistance frequency (Expt. 1)” value [8] was 1.60 × 10^−8. The “Resistance frequency (Expt. 2)” value [8] was 2.58 × 10^−8, the “Resistance frequency (average or greater #)” value [8] was 2.10 × 10^−8 and the EC50 ([11]; Cryptosporidium parvum) was 38 nM. For the same compound, the EC50 [11] was 33 nM, the EC50 [12] was 10 nM and the suppression of infection [13] was “over 99%”. For the same compound, the tissue parasites [14] was “dramatic suppression of tissue parasites” and the survival ([14]; vehicle mice all died by day 14) was 100%.

`CCn1c(Cc2ccc(Cl)cc2Cl)cn(Cc2nc3nc(F)ccc3[nH]2)c1=O` [Compound 2062, 4-[(2,4-dichlorophenyl)methyl]-3-ethyl-1-({5-fluoro-1H-imidazo[4,5-b]pyridin-2-yl}methyl)-2,3-dihydro-1H-imidazol-2-one] gave an EC50 [15] of 3.48 nM.

With `COc1cc(Cl)c(-c2cccc3nc(Cc4nc5nc(Cl)ccc5[nH]4)cn23)cc1OC` [Compound 2144, 2-({5-chloro-1H-imidazo[4,5-b]pyridin-2-yl}methyl)-5-(2-chloro-4,5-dimethoxyphenyl)imidazo[1,2-a]pyridine] the MIC [3] was 0.039 µg/mL (≈ 0.0858 µM), the MIC [4] was 0.078 µg/mL (≈ 0.172 µM) and the MIC [5] was 0.039 µg/mL (≈ 0.0858 µM). The MIC [6] was > 20 µg/mL, the MIC [7] was > 20 µg/mL and the “Resistance frequency (Expt. 1)” value [8] was 3.15 × 10^−9. For the same compound, the “Resistance frequency (Expt. 2)” value [8] was 2.45 × 10^−8, the “Resistance frequency (average or greater #)” value [8] was 1.38 × 10^−8 and the EC50 ([11]; Cryptosporidium parvum) was > 2000 nM.

Compound `CCn1c(Cc2ccc(OC)cc2Cl)cn(Cc2nc3nc(F)ccc3[nH]2)c1=O` [Compound 2114, 4-[(2-chloro-4-methoxyphenyl)methyl]-3-ethyl-1-({5-fluoro-1H-imidazo[4,5-b]pyridin-2-yl}methyl)-2,3-dihydro-1H-imidazol-2-one] has an EC50 ([15]; Trypanosoma brucei) of 1.4 nM and an EC50 ([11]; Cryptosporidium parvum) of 53 nM.

For `Fc1ccc2nc(NCCCNCc3cc(Cl)cc(Cl)c3)[nH]c2n1` [Compound 1614, [(3,5-dichlorophenyl)methyl][3-({5-fluoro-3H-imidazo[4,5-b]pyridin-2-yl}amino)propyl]amine], the MIC [1] was > 10 µg/mL, the MIC [2] was > 10 µg/mL and the MIC [3] was 5 µg/mL (≈ 13.6 µM). The MIC [4] was 2.5 µg/mL (≈ 6.79 µM), the MIC [5] was 10 µg/mL (≈ 27.2 µM) and the MIC [6] was > 10 µg/mL. For the same compound, the “effects on weight, grooming, or body condition” value [10] was “no deleterious effects on weight, grooming, or body condition”.

`CC(=O)NC[C@H]1CN(c2ccc(N3CCOCC3)c(F)c2)C(=O)O1` [LNZ, linezolid] showed an MIC [3] of 2.5 µg/mL (≈ 7.41 µM), an MIC [4] of 1.25 µg/mL (≈ 3.71 µM) and an MIC [5] of 1.25 µg/mL (≈ 3.71 µM). For the same compound, the MIC [6] was 1.25 µg/mL (≈ 3.71 µM) and the “% binding to human plasma” value [16] was 31* %.
